This is an account of results in patent publication US20240018120A1, “MAGL INHIBITORS” (H. LUNDBECK A/S, priority 2020, published 2024).

In the assay the target is T1, MAGL (Homo sapiens, UniProt Q99685).
T1 sequence (Q99685 1-303): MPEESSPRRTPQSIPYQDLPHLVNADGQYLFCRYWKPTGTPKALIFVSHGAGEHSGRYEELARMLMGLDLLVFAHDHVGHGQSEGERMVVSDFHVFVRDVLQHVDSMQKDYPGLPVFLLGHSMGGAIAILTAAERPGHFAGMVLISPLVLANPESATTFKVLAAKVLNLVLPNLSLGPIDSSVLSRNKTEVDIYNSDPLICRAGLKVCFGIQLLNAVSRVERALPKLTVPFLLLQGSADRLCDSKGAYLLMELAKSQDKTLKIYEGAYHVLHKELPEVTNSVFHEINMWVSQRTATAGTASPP
The experiment in a line: In vitro competitive activity-based protein profiling, PC3 human cell membrane proteomes. The format is biochemical. The arrangement: endogenous in cells; host or cells: PC3 human cells (membrane proteome). To be noted: human PC3 membrane proteome. As to the method:
PC3 human cell membrane proteomes (50 μL, 2.0 mg/mL total protein concentration) were preincubated with varying concentrations of inhibitors at 37° C. After 30 min, the ABPP probe JW912-Bodipy (1.0 μL, 50 μM in DMSO) was added and the mixture was incubated for 30 min at room temperature. Reactions were quenched with SDS loading buffer (15 μL-4×) and run on SDS-PAGE. Following gel imaging, serine hydrolase activity was determined by measuring fluorescent intensity of gel bands corresponding to MAGL using ImageJ 1.43u software. Intensities were converted to percent enzyme activity by normalizing to DMSO controls. IC50 values were determined by fitting percent enzyme activities to a non-linear regression, 4-parameter, sigmoidal dose response function in Prism GraphPad.

One may read the IC50 as the concentration needed to halve the response being measured. The low end stands for greater potency in that assay, the high end for weaker potency in that assay. For `CC(C)Oc1ccc(NC(=O)C2CC23CCN(C(=O)OC(C(F)(F)F)C(F)(F)F)CC3)cn1` (single isomer, unassigned) [Example 165, 1,1,1,3,3,3-hexafluoropropan-2-yl (R or S)-1-((6-isopropoxypyridin-3-yl)carbamoyl)-6-azaspiro[2.5]octane-6-carboxylate], the concentration for half-maximal inhibition (IC50) is 0.0014 µM. For `O=C(Nc1ccc(-n2cccn2)nc1)C1CC12CCN(C(=O)OC(C(F)(F)F)C(F)(F)F)CC2` (single isomer, unassigned) [Example 30, 1,1,1,3,3,3-Hexafluoropropan-2-yl (R or S)-1-((6-(1H-pyrazol-1-yl)pyridin-3-yl)carbamoyl)-6-azaspiro[2.5]octane-6-carboxylate] the value was 0.39 µM; for `Cc1ncc(NC(=O)C2CC23CCN(C(=O)OC(C(F)(F)F)C(F)(F)F)CC3)cn1` (single isomer, unassigned) [Example 102, 1,1,1,3,3,3-hexafluoropropan-2-yl (R or S)-1-((2-methylpyrimidin-5-yl)carbamoyl)-6-azaspiro[2.5]octane-6-carboxylate], 0.15 µM.

Consider `CNC(=O)c1ccc(NC(=O)C2CC23CCN(C(=O)OC(C(F)(F)F)C(F)(F)F)CC3)cn1` (single isomer, unassigned) [Example 33, 1,1,1,3,3,3-Hexafluoropropan-2-yl (R or S)-1-((6-(methylcarbamoyl)pyridin-3-yl)carbamoyl)-6-azaspiro[2.5]octane-6-carboxylate], for which the IC50 is 0.0022 µM.

For the molecule `O=C(Nc1ccon1)C1CC12CCN(C(=O)OC(C(F)(F)F)C(F)(F)F)CC2` (single isomer, unassigned) [Example 178, 1,1,1,3,3,3-hexafluoropropan-2-yl (R or S)-1-(isoxazol-3-ylcarbamoyl)-6-azaspiro[2.5]octane-6-carboxylate], the IC50 is 0.0027 µM. For `Cc1cnc(NC(=O)C2CC23CCN(C(=O)OC(C(F)(F)F)C(F)(F)F)CC3)cn1` (single isomer, unassigned) [Example 111, 1,1,1,3,3,3-hexafluoropropan-2-yl (R or S)-1-((5-methylpyrazin-2-yl)carbamoyl)-6-azaspiro[2.5]octane-6-carboxylate] the value was 0.074 µM; for `O=C(NC1CC2(COC2)C1)C1CC12CCN(C(=O)OC(C(F)(F)F)C(F)(F)F)CC2` (single isomer, unassigned) [Example 160, 1,1,1,3,3,3-hexafluoropropan-2-yl (R or S)-1-((2-oxaspiro[3.3]heptan-6-yl)carbamoyl)-6-azaspiro[2.5]octane-6-carboxylate], 0.59 µM; for `O=C(NCc1cncnc1)C1CC12CCN(C(=O)OC(C(F)(F)F)C(F)(F)F)CC2` (single isomer, unassigned) [Example 154, 1,1,1,3,3,3-hexafluoropropan-2-yl (R or S)-1-((pyrimidin-5-ylmethyl)carbamoyl)-6-azaspiro[2.5]octane-6-carboxylate], 0.86 µM. For `O=C(NCc1ccccc1)[C@@H]1CC12CCN(C(=O)OC(C(F)(F)F)C(F)(F)F)CC2` (single isomer, unassigned) [Example 151], the IC50 came out at 0.031 µM. The figure for `O=C(Nc1ccccc1)[C@H]1CC12CCN(C(=O)OC(C(F)(F)F)C(F)(F)F)CC2` (single isomer, unassigned) [Example 141] is 0.00091 µM. For `O=C(Nc1ccc(C2CC2)nc1)[C@H]1CC12CCN(C(=O)OC(C(F)(F)F)C(F)(F)F)CC2` (single isomer, unassigned) [Example 163] the value was 0.001 µM; for `CS(=O)(=O)Nc1ccc(NC(=O)C2CC23CCN(C(=O)OC(C(F)(F)F)C(F)(F)F)CC3)cn1` (single isomer, unassigned) [Example 180, 1,1,1,3,3,3-hexafluoropropan-2-yl (R or S)-1-((6-(methylsulfonamido)pyridin-3-yl)carbamoyl)-6-azaspiro[2.5]octane-6-carboxylate], 0.28 µM; for `Cc1ccc(NC(=O)[C@H]2CC23CCN(C(=O)OC(C(F)(F)F)C(F)(F)F)CC3)nn1` (single isomer, unassigned) [Example 106], 0.001 µM. The figure for `NC(=O)c1ccc(NC(=O)[C@@H]2CC23CCN(C(=O)OC(C(F)(F)F)C(F)(F)F)CC3)cn1` (single isomer, unassigned) [Example 174] is 0.22 µM; for `O=C(Nc1cnoc1)[C@H]1CC12CCN(C(=O)OC(C(F)(F)F)C(F)(F)F)CC2` (single isomer, unassigned) [Example 14] it is 0.013 µM. Take `Cc1ccc(NC(=O)C2CC23CCN(C(=O)OC(C(F)(F)F)C(F)(F)F)CC3)cc1` (single isomer, unassigned) [Example 144, 1,1,1,3,3,3-hexafluoropropan-2-yl (R or S)-1-(p-tolylcarbamoyl)-6-azaspiro[2.5]octane-6-carboxylate]: the IC50 was determined as 0.0052 µM.

In turn, `Cn1ccc(NC(=O)C2CC23CCN(C(=O)OC(C(F)(F)F)C(F)(F)F)CC3)n1` (single isomer, unassigned) [Example 126, 1,1,1,3,3,3-hexafluoropropan-2-yl (R or S)-1-((1-methyl-1H-pyrazol-3-yl)carbamoyl)-6-azaspiro[2.5]octane-6-carboxylate] had a half-inhibitory concentration (IC50) of 0.23 µM.

The molecule `CC(C)Oc1ccc(NC(=O)C2CC23CCN(C(=O)OC(C(F)(F)F)C(F)(F)F)CC3)cn1` (single isomer, unassigned) [Example 166, 1,1,1,3,3,3-hexafluoropropan-2-yl (R or S)-1-((6-isopropoxypyridin-3-yl)carbamoyl)-6-azaspiro[2.5]octane-6-carboxylate] registered a concentration for half-maximal inhibition (IC50) of 0.13 µM. For `O=C(NC1CC2(COC2)C1)C1CC12CCN(C(=O)OC(C(F)(F)F)C(F)(F)F)CC2` (single isomer, unassigned) [Example 159, 1,1,1,3,3,3-hexafluoropropan-2-yl (R or S)-1-((2-oxaspiro[3.3]heptan-6-yl)carbamoyl)-6-azaspiro[2.5]octane-6-carboxylate] the value was 0.043 µM; for `O=C(Nc1nccs1)C1CC12CCN(C(=O)OC(C(F)(F)F)C(F)(F)F)CC2` (single isomer, unassigned) [Example 139, 1,1,1,3,3,3-hexafluoropropan-2-yl (R or S)-1-(thiazol-2-ylcarbamoyl)-6-azaspiro[2.5]octane-6-carboxylate], 0.11 µM; for `O=C(Nc1cccc(F)c1)C1CC12CCN(C(=O)OC(C(F)(F)F)C(F)(F)F)CC2` (single isomer, unassigned) [Example 148, 1,1,1,3,3,3-hexafluoropropan-2-yl (R or S)-1-((3-fluorophenyl)carbamoyl)-6-azaspiro[2.5]octane-6-carboxylate], 0.091 µM. For `CP(C)(=O)c1ccc(NC(=O)C2CC23CCN(C(=O)OC(C(F)(F)F)C(F)(F)F)CC3)cn1` (single isomer, unassigned) [Example 21, 1,1,1,3,3,3-Hexafluoropropan-2-yl (R or S)-1-((6-(dimethylphosphoryl)pyridin-3-yl)carbamoyl)-6-azaspiro[2.5]octane-6-carboxylate] the value was 0.317 µM.

In the case of `CC(=O)Nc1ccc(NC(=O)C2CC23CCN(C(=O)OC(C(F)(F)F)C(F)(F)F)CC3)cn1` (single isomer, unassigned) [Example 171, 1,1,1,3,3,3-hexafluoropropan-2-yl (R or S)-1-((6-acetamidopyridin-3-yl)carbamoyl)-6-azaspiro[2.5]octane-6-carboxylate], the IC50 was 0.0025 µM.

`Cc1ccc(NC(=O)[C@@H]2CC23CCN(C(=O)OC(C(F)(F)F)C(F)(F)F)CC3)nn1` (single isomer, unassigned) [Example 105] had an IC50 of 0.1 µM. The figure for `O=C(Nc1ccnnc1)C1CC12CCN(C(=O)OC(C(F)(F)F)C(F)(F)F)CC2` (single isomer, unassigned) [Example 108, 1,1,1,3,3,3-hexafluoropropan-2-yl (R or S)-1-(pyridazin-4-ylcarbamoyl)-6-azaspiro[2.5]octane-6-carboxylate] is 0.013 µM. Take `NC(=O)c1ccc(NC(=O)[C@H]2CC23CCN(C(=O)OC(C(F)(F)F)C(F)(F)F)CC3)cn1` (single isomer, unassigned) [Example 175]: the concentration for half-maximal inhibition (IC50) amounted to 0.0014 µM. The figure for `O=C(Nc1cccc(F)c1)C1CC12CCN(C(=O)OC(C(F)(F)F)C(F)(F)F)CC2` (single isomer, unassigned) [Example 147, 1,1,1,3,3,3-hexafluoropropan-2-yl (R or S)-1-((3-fluorophenyl)carbamoyl)-6-azaspiro[2.5]octane-6-carboxylate] is 0.0018 µM.
